From PubChem BioAssay AID330 (DTP/NCI, 2004) come the findings set out here.

The subject of the test is P388 leukemia ip, CD2F1 mice, survival T/C. In words: NCI In Vivo Anticancer Drug Screen. Data for tumor model P388 Leukemia (intraperitoneal) in CD2F1 (CDF1) mice. To be noted: endpoint: median survival time, higher = longer survival. The method, boiled down:
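Mice carrying the transplanted tumor received test compound or vehicle. Survival was recorded in each group, and the value is the treated-group measurement divided by that of the vehicle-treated control group.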

The mark [1] stands for this setting: dose: 60.0 mg/kg/injection, schedule: Q01DX005 (ip), vehicle: saline with Tween-80.
The mark [2] stands for this setting: dose: 120.0 mg/kg/injection, schedule: Q01DX005 (ip), vehicle: saline with Tween-80.
The mark [3] stands for this setting: dose: 240.0 mg/kg/injection, schedule: Q01DX005 (ip), vehicle: saline with Tween-80.
Setting [4] is: dose: 50.0 mg/kg/injection, schedule: Q01DX005 (ip), vehicle: saline with Tween-80.
[5] abbreviates: dose: 12.5 mg/kg/injection, schedule: Q01DX005 (ip), vehicle: Klucel (hydroxypropylcellulose) (HPC).
Where [6] appears, read: dose: 25.0 mg/kg/injection, schedule: Q01DX005 (ip), vehicle: Klucel (hydroxypropylcellulose) (HPC).
The mark [7] stands for this setting: dose: 50.0 mg/kg/injection, schedule: Q01DX005 (ip), vehicle: Klucel (hydroxypropylcellulose) (HPC).
Setting [8] is: dose: 100.0 mg/kg/injection, schedule: Q01DX005 (ip), vehicle: Klucel (hydroxypropylcellulose) (HPC).
[9] abbreviates: dose: 60.0 mg/kg/injection, schedule: Q01DX005 (ip), vehicle: Klucel (hydroxypropylcellulose) (HPC).
The mark [10] stands for this setting: dose: 120.0 mg/kg/injection, schedule: Q01DX005 (ip), vehicle: Klucel (hydroxypropylcellulose) (HPC).
[11] abbreviates: dose: 240.0 mg/kg/injection, schedule: Q01DX005 (ip), vehicle: Klucel (hydroxypropylcellulose) (HPC).
[12] abbreviates: dose: 6.25 mg/kg/injection, schedule: Q01DX009 (ip), vehicle: saline with Tween-80.
The mark [13] stands for this setting: dose: 12.5 mg/kg/injection, schedule: Q01DX009 (ip), vehicle: saline with Tween-80.
The mark [14] stands for this setting: dose: 25.0 mg/kg/injection, schedule: Q01DX009 (ip), vehicle: saline with Tween-80.
Setting [15] is: dose: 60.0 mg/kg/injection, schedule: Q01DX005 (ip), vehicle: saline.
[16] abbreviates: dose: 120.0 mg/kg/injection, schedule: Q01DX005 (ip), vehicle: saline.
[17] abbreviates: dose: 240.0 mg/kg/injection, schedule: Q01DX005 (ip), vehicle: saline.

“And” between values parts separate entries of the source, which are not always exact repeats. Equal values may be shown once. Inconclusive results and toxic doses are left out. Square brackets hold non-standard residues; d marks the D form. Peptide text beside a SMILES is read from it. * marks the point of attachment. ξ: configuration not given here. Cbz = O=C(OCc1ccccc1)*; OBn = c1ccc(CO*)cc1; ξS = NC(CO)C(=O)O

As to `N#CC(C(=O)CCCC(=O)Nc1cccc([N+](=O)[O-])c1)c1cccc2ccccc12` (configuration not stated), the T/C is, setting by setting: under setting [1], 104 % of control; under setting [2], 108 % of control; under setting [3], 101 % of control.

For the compound `CCOC(=O)CC1=CSC(=C(C(=O)OCC)C(=O)OCC)N1c1ccccc1`, the T/C reads like this: under setting [4], 96 % of control; (dose: 100.0 mg/kg/injection, schedule: Q01DX005 (ip), vehicle: saline with Tween-80) 91 % of control; (dose: 200.0 mg/kg/injection, schedule: Q01DX005 (ip), vehicle: saline with Tween-80) 86 % of control.

For `CNC(=O)O/N=C/c1ccccc1-c1ccccc1`, the T/C reads like this: (dose: 50.0 mg/kg/injection, schedule: Q01DX009 (ip), vehicle: saline with Tween-80) 97 % of control; (dose: 100.0 mg/kg/injection, schedule: Q01DX009 (ip), vehicle: saline with Tween-80) 86 % of control.

For the compound `O=C(O)CCCCCCCCCCNC(=O)CI`, the T/C is 107 % of control (dose: 6.25 mg/kg/injection, schedule: Q01DX009 (ip), vehicle: Klucel (hydroxypropylcellulose) (HPC)); 119 % of control (dose: 12.5 mg/kg/injection, schedule: Q01DX009 (ip), vehicle: Klucel (hydroxypropylcellulose) (HPC)); 119 % of control (dose: 25.0 mg/kg/injection, schedule: Q01DX009 (ip), vehicle: Klucel (hydroxypropylcellulose) (HPC)).

As for `NCC1CC2c3ccccc3C1c1ccccc12` (configuration not stated), the T/C reads like this: under setting [5], 103 % of control; under setting [6], 97 % of control; under setting [7], 99 % of control and 95 % of control; under setting [8], 106 % of control.

Turning to `Cc1ccccc1C1N=C2Oc3ccccc3C=C2C(=O)N1` (configuration not stated), the T/C under setting [5] is 100 % of control and 102 % of control and 98 % of control; the T/C under setting [6] was 93 % of control.

Consider `O=C(O)C(Cc1ccc(O)cc1)NS(=O)(=O)Cc1ccccc1` (configuration not stated), for which the T/C reads like this: (dose: 100.0 mg/kg/injection, schedule: Q01DX009 (ip), vehicle: DMSO) 99 % of control; (dose: 200.0 mg/kg/injection, schedule: Q01DX009 (ip), vehicle: DMSO) 92 % of control.

With `Cc1ncc(CO)c(/C=N/NC(=O)c2ccncc2)c1O`, the T/C is 102 % of control under setting [9], 102 % of control under setting [10] and 101 % of control under setting [11].

On to `O=C(CNC(=O)C(CO)NC(=O)OCc1ccccc1)NCC(=O)OCc1ccccc1` (stereo not drawn) (Cbz-[ξS]-Gly-Gly-OBn), for which the T/C reads like this: under setting [7], 101 % of control; under setting [8], 99 % of control; (dose: 200.0 mg/kg/injection, schedule: Q01DX005 (ip), vehicle: Klucel (hydroxypropylcellulose) (HPC)) 97 % of control.

For `Brc1ccc(Nc2ccccn2)cc1`, the T/C by setting is: (dose: 12.5 mg/kg/injection, schedule: Q01DX009 (ip), vehicle: other) 108 % of control; (dose: 25.0 mg/kg/injection, schedule: Q01DX009 (ip), vehicle: other) 97 % of control; (dose: 50.0 mg/kg/injection, schedule: Q01DX009 (ip), vehicle: other) 105 % of control; (dose: 100.0 mg/kg/injection, schedule: Q01DX009 (ip), vehicle: other) 105 % of control; (dose: 200.0 mg/kg/injection, schedule: Q01DX009 (ip), vehicle: other) 106 % of control.

As to `COc1ccc2c3c1OC1C(O)C=CC4C(C2)N(C)CCC341` (configuration not stated), the T/C by setting is: (dose: 3.12 mg/kg/injection, schedule: Q01DX009 (ip), vehicle: saline with Tween-80) 102 % of control; under setting [12], 105 % of control; under setting [13], 112 % of control; under setting [14], 114 % of control.

Consider `Cc1ccc(S(=O)(=O)OCC2COC(C(C)C)OC2)cc1` (configuration not stated), for which the T/C reads like this: under setting [1], 99 % of control; under setting [2], 90 % of control; under setting [3], 90 % of control.

In the case of `CC(=O)OCC(Br)C(Br)COC(C)=O` (configuration not stated), the T/C runs as follows: (dose: 100.0 mg/kg/injection, schedule: Q04DX003 (ip), vehicle: saline with Tween-80) 100 % of control; (dose: 200.0 mg/kg/injection, schedule: Q04DX003 (ip), vehicle: saline with Tween-80) 100 % of control; (dose: 400.0 mg/kg/injection, schedule: Q04DX003 (ip), vehicle: saline with Tween-80) 100 % of control.

Consider `[Cu+2].[NH-]CC1CCCC[N-]1.[NH-]CC1CCCC[N-]1.[O-][Cl+3]([O-])([O-])O` (configuration not stated), for which the T/C under setting [12] was 103 % of control; the T/C under setting [13] was 100 % of control and 96 % of control; the T/C under setting [14] was 107 % of control.

`COc1cc2c(cc1OC)CN1CCc3cc(OC)c(OC)cc3[C@@H]1C2`: the T/C reads like this: (dose: 12.5 mg/kg/injection, schedule: Q01DX005 (ip), vehicle: saline with Tween-80) 100 % of control; (dose: 25.0 mg/kg/injection, schedule: Q01DX005 (ip), vehicle: saline with Tween-80) 102 % of control; under setting [4], 104 % of control and 98 % of control.

`O=c1[nH]c2ccccc2nc1CBr`: the T/C reads like this: (dose: 1.56 mg/kg/injection, schedule: Q01DX009 (ip), vehicle: saline with Tween-80) 109 % of control; (dose: 3.13 mg/kg/injection, schedule: Q01DX009 (ip), vehicle: saline with Tween-80) 109 % of control; under setting [12], 113 % of control; (dose: 8.33 mg/kg/injection, schedule: Q01DX009 (ip), vehicle: saline with Tween-80) 118 % of control; under setting [13], 113 % of control and 122 % of control; (dose: 18.7 mg/kg/injection, schedule: Q01DX009 (ip), vehicle: saline with Tween-80) 118 % of control.

`CN(CCO)c1cnn(CCO)c(=O)c1Cl`: the T/C is 102 % of control under setting [15], 105 % of control under setting [16] and 102 % of control under setting [17].

As for `C[CH2][Sn]([CH2]C)([O]C(C)=O)[O][Sn]([CH2]C)([CH2]C)[O]C(C)=O`, the T/C (dose: 6.25 mg/kg/injection, schedule: Q01DX009 (ip), vehicle: saline) was 155 % of control.

As for `COC(=O)C1(CC(=O)C2CC2)NC(=S)NC(=O)C1C#N` (configuration not stated), the T/C under setting [9] is 103 % of control, the T/C under setting [10] is 100 % of control and the T/C under setting [11] was 100 % of control.

Take `CCc1nc(N)nc(N)c1-c1ccc(OC)c([N+](=O)[O-])c1`: the T/C runs as follows: under setting [2], 151 % of control and 189 % of control; (dose: 480.0 mg/kg/injection, schedule: Q01DX005 (ip), vehicle: saline with Tween-80) 90 % of control.

With `Cc1ccn(C)n1`, the T/C is, setting by setting: under setting [15], 96 % of control; under setting [16], 93 % of control; under setting [17], 100 % of control.

In the case of `Cc1nn(CCO)c(-c2ccccc2)c1-n1on1-c1c(C)nn(CCO)c1-c1ccccc1`, the T/C reads like this: (dose: 25.0 mg/kg/injection, schedule: Q01DX009 (ip), vehicle: saline) 97 % of control; (dose: 50.0 mg/kg/injection, schedule: Q01DX009 (ip), vehicle: saline) 98 % of control; (dose: 100.0 mg/kg/injection, schedule: Q01DX009 (ip), vehicle: saline) 98 % of control.
